Like-named read-outs stand apart in the source and are kept apart here.
Experiments:
[1] = tested on: Feline Infectious Peritonitis Type 2 (“FIP Type 2”) corona virus; assay: Virucidal bioassay: FIP-2 corona virus suspension exposed to test article, then titrated in CrFK cell culture (TCID50, Reed and Muench); assay type: cell-based, Feline Infectious Peritonitis Type 2 corona virus; details: for FIP-2 Titer / % Reduction / Reduction in Titer: 300 seconds exposure; for FIP-2 Titer: control titer 6.70 logs/ml
Text: (§1) Untreated virus served as controls. […] They were then observed microscopically for CPE inhibition, reporting titers as TCID 50/ml, also expressed as plaque forming units (pfu's). The corrected virus titer (# positives×dilution) is reported in log/ml. Virucidal activity is thus defined as the number of logs reduction of virus titer between the test article and the control (Reed and Muench, Am. J. Hyg. 27:493-497, 1938).

[2] = tested on: CrFK cell culture; assay: Cell toxicity / cytopathic effect on host cells in the FIP-2 corona virus test; assay type: cell-based
Text: as §1

[3] = tested on: influenza A/Equi 2?Miami 1/63, ATCC VR517; assay: Virucidal assay: influenza virus exposed to CPC solutions, titrated in MDCK cell culture (Reed and Muench); assay type: cell-based, Orthomyxoviridie virus (influenza A/Equi 2)
[4] = tested on: MDCK (NBL-2)5 (ATCC type CCL-34) cell culture
[5] = tested on: FeLV retrovirus; details: for reduction in the viral titer: 300 seconds, titer 6.0 logs/ml
Procedure: (§2) FeLV retrovirus was gown in cell culture to a titer of 6.0 logs/ml.
(§3) Briefly, virus suspensions were exposed to three concentrations of CPC, 0.025%, 0.05%, and 0.10%, for 300 seconds. Untreated virus served as controls. At the end of the exposure, the virus was titrated in CrFK cell culture. Viral titration was accomplished at each test article concentration by seeding 0.1 ml of a serial dilution of treated virus to the CrFK cell culture. Serial dilutions were prepared from 10^−1 to 10^−8 of the original virus concentration, or five million/ml (6.7 log units) and each dilution then placed in each of four wells (replicates) of a 96 well microplate. The inoculated cells (80 μl per well) are then incubated at 37° C. in a CO2 incubator for five days.

[6] = tested on: CrFK (ATCC type CCL-94) cell culture; assay: Cytotoxicity of CPC in the FeLV test
Procedure: as §2, §3

[7] = pH of acid solutions; assay type: physicochemical; details: at 0.1%

CCCCCCCCCCCCCCCC[n+]1ccccc1 [CPC, Cetylpyridinium chloride]
FIP-2 Titer ([1]; CPC 0.025%): 3.30 logs/ml
% Reduction ([1]; CPC 0.05%): 99.97%
Reduction in Titer ([1]; CPC 0.05%): >3.20 logs
FIP-2 Titer ([1]; CPC 0.05%): <3.50 logs/ml
% Reduction ([1]; CPC 0.10%): 99.97%
Reduction in Titer ([1]; CPC 0.10%): >3.20 logs
FIP-2 Titer ([1]; CPC 0.10%): <3.50 logs/ml
adverse cytopathic effects ([2]; 0.025% in solution, five minutes): without adverse cytopathic effects
reduction to the virus titers ([3]; 0.025% (weight/volume) CPC with 0.1% citric acid (weight/volume)): greater than 3.5 log
reduction to the virus titers ([3]; 0.05% (weight/volume) CPC with 0.1% citric acid (weight/volume)): greater than 3.5 log
cytotoxic affects ([4]; test solutions containing 0.025% CPC and 0.1% citric acid): no observed cytotoxic affects
reduction in the viral titer ([5]; CPC 0.025% in conjunction 0.1% citric acid): greater than 3.5 logs/ml
reduction in the viral titer ([5]; CPC 0.025% without citric acid): greater than 3.5 logs/ml
reduction of the FeLV virus ([5]; all three levels of CPC (0.025%, 0.05%, 0.10%) with or without citric acid at 0.1%): 100%
cytotoxic ([6]; CPC 0.025%): not cytotoxic
cytotoxic ([6]; CPC 0.05%): cytotoxic
cytotoxic ([6]; CPC 0.1%): cytotoxic

Oc1cc(Cl)ccc1Oc1ccc(Cl)cc1Cl [Triclosan, triclosan]
viral reduction ([1]; all three levels (0.025%, 0.05%, 0.10%)): no viral reduction
cellular toxicity ([2]; three concentrations as employed with CPC (0.025%, 0.05%, 0.10%)): cellular toxicity at all three levels

CC(=O)O [acetic acid]
pH [7]: 2.3

O=C(O)CC(O)(CC(=O)O)C(=O)O [citric acid]
pH [7]: 2.3
cytotoxic ([4]; acid solution at 0.1%): neither solution was cytotoxic

Reference: patent US20090232748A1 (ViraTox, L.L.C., priority 2003, published 2009)
